Data on 13 compounds can be found in US9079866B2, “Flap modulators” (JANSSEN PHARMACEUTICA NV, priority 2013, dated 2015).

One test concerns the target human FLAP (Homo sapiens (Human), UniProt P20292). The experiment in a line: FLAP binding assay (HTRF format). The method, boiled down:
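Binding of compounds to FLAP read out as HTRF ratio. Values are the mean of two assay plates, each sample run in duplicate per plate.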

Test [1] has as its system leukotriene pathway in human whole blood (LTB4 levels). As to the kind of experiment: Human whole blood assay (A23187-stimulated LTB4). It counts as cell-based. As to conditions: Homo sapiens, human whole blood diluted 1:1, A23187-stimulated; read-out: LTB4 IC50 1:1. In outline:
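Blood (heparin) diluted 1:1 RPMI; compound pre-incubation 15 min, 37° Celsius; A23187 7 μg/mL, 30 min, 37° Celsius; plasma LTB4 by commercial kit. IC50 via 4-parameter equation.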

Structures can show the parent of a compound that is named as a salt. Where two headings read alike, the source gives them in different places.

Chain of human FLAP (P20292 whole entry): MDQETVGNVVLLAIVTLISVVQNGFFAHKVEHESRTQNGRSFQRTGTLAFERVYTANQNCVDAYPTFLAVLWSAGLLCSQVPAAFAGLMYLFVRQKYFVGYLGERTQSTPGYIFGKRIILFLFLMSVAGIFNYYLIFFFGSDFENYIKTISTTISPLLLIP

Take `Nc1cnc(-c2ccc(-c3ccccc3Sc3cncc(N)n3)cc2F)cn1` [Example 742, 5-{2′-[(6-Aminopyrazin-2-yl)sulfanyl]-3-fluorobiphenyl-4-yl}pyrazin-2-amine]: the inhibition constant Ki at human FLAP (wild type FLAP, HTRF format) was 2.9 nM. In test [1], the IC50 was 25.7 nM.
For `Nc1cnc(-c2ccc(-c3ccccc3Sc3ccncn3)cc2F)cn1` [Example 743, 5-(3-Fluoro-2′-(pyrimidin-4-ylthio)-[1,1′-biphenyl]-4-yl)pyrazin-2-amine], the affinity on human FLAP (wild type FLAP, HTRF format) corresponds to a Ki of 1.6 nM. Moreover, the half-inhibitory concentration (IC50) in test [1] came out at 21.6 nM.
As to `Nc1cnc(Sc2ccccc2-c2ccc(-c3cnc(N)nc3)c(F)c2)cn1` [Example 744, 5-{2′-[(5-Aminopyrazin-2-yl)sulfanyl]-3-fluorobiphenyl-4-yl}pyrimidin-2-amine], on human FLAP (wild type FLAP, HTRF format), the Ki turned out to be 15.5 nM. The concentration for half-maximal inhibition (IC50) in test [1] is 132 nM.
Compound `N#Cc1nc(N)cnc1-c1ccc(-c2ccc(C(F)(F)F)cc2Oc2ncccn2)cc1F` [Example 746, 6-Amino-3-[3-fluoro-2′-(pyrimidin-2-yloxy)-4′-(trifluoromethyl)biphenyl-4-yl]pyrazine-2-carbonitrile] gave an inhibition constant (Ki) on human FLAP (wild type FLAP, HTRF format) of 2 nM. In addition, in test [1], the IC50 was found to be 137 nM.
As for `N#Cc1nc(N)cnc1-c1ccc(-c2ccccc2Oc2ncccn2)cc1F` [Example 747, 6-Amino-3-[3-fluoro-2′-(pyrimidin-2-yloxy)biphenyl-4-yl]pyrazine-2-carbonitrile], the Ki on human FLAP (wild type FLAP, HTRF format) amounted to 27.1 nM. Also, in test [1], the concentration for half-maximal inhibition (IC50) worked out at 262 nM.
As to `CCS(=O)(=O)Cc1ccccc1-c1ccc(-c2cnc(N)cn2)c(F)c1` [Example 749, 5-{2′-[(Ethylsulfonyl)methyl]-3-fluorobiphenyl-4-yl}pyrazin-2-amine hydrogen chloride salt], at human FLAP (read-out: FLAP Binding wild type HTRF Ki), the Ki turned out to be 246 nM. The half-inhibitory concentration (IC50) in test [1] turned out to be 468 nM.
`CC(C)S(=O)(=O)Cc1ccccc1-c1ccc(-c2cnc(N)cn2)c(F)c1` [Example 751, 5-(3-Fluoro-2′-{[(1-methylethyl)sulfonyl]methyl}biphenyl-4-yl)pyrazin-2-amine] came in with a Ki on human FLAP (wild type FLAP, HTRF format) of 80.9 nM. Besides, the IC50 in test [1] worked out at 1060 nM.
For `Nc1cnc(-c2ccc(-c3ccccc3CS(=O)(=O)c3ncccn3)cc2F)cn1` [Example 752, 5-{3-Fluoro-2′-[(pyrimidin-2-ylsulfonyl)methyl]biphenyl-4-yl}pyrazin-2-amine], in that order: 135 nM and 299 nM.
On the same counts, the results for `Nc1cnc(-c2ccc(-c3ccccc3CSc3nccc(N)n3)cc2F)cn1` [Example 753, 2-({[4′-(5-Aminopyrazin-2-yl)-3′-fluorobiphenyl-2-yl]methyl}sulfanyl)pyrimidin-4-amine] are 4.4 nM and 21.3 nM.
Consider `Nc1cnc(-c2ccc(-c3ccc(C(F)(F)F)cc3C(=O)N3CCS(=O)(=O)CC3)cc2F)cn1` [Example 757, 5-{2′-[(1,1-Dioxidothiomorpholin-4-yl)carbonyl]-3-fluoro-4′-(trifluoromethyl)biphenyl-4-yl}pyrazin-2-amine], for which the affinity on human FLAP (wild type FLAP, HTRF format), expressed as Ki, was 5.2 nM. Moreover, the IC50 in test [1] was determined as 16.2 nM.
For `Nc1cnc(-c2ccc(-c3ccccc3C(=O)N3CCC[C@@H](O)C3)cc2F)cn1` [Example 762, (3R)-1-{[4′-(5-Aminopyrazin-2-yl)-3′-fluorobiphenyl-2-yl]carbonyl}piperidin-3-ol], in that order: 159 nM and 442 nM.
For `CC(C)(C)NC(=O)c1cc(C(F)(F)F)ccc1-c1ccc(-c2cnc(N)cn2)c(F)c1` [Example 784, 2-[4-(5-Aminopyrazin-2-yl)-3-fluoro-phenyl]-N-tert-butyl-5-(trifluoromethyl)benzamide], in that order: 7.9 nM and 110 nM.
For `C[C@H](CO)NC(=O)c1cc(C(F)(F)F)ccc1-c1ccc(-c2cnc(N)cn2)c(F)c1` [Example 785, 2-[4-(5-Aminopyrazin-2-yl)-3-fluoro-phenyl]-N-[(1R)-2-hydroxy-1-methyl-ethyl]-5-(trifluoromethyl)benzamide], in that order: 8.5 nM and 57.5 nM.
